Data taken from PMC4735555, “Crystal structure of the N-myristoylated lipopeptide-bound MHC class I complex” (Nature Communications, 2016).

What was measured:
[1] = test system: 2N5.1 (plate-coated Mamu-B*098); experiment: T-cell assay with plate-coated Mamu-B*098, IFN-γ release by 2N5.1; format: cell-based, rhesus macaque; conditions: 10 μg MHC protein, 1 μg lipopeptide loaded overnight 37 °C; 5 × 10^4 T cells per well, 24 h; IFN-γ ELISA
Description: (§1) Single-chain MHC proteins in which β2m was linked via a Gly-Ser linker (GGGGSGGSGSGGGSS) to the ectodomain of either Mamu-B*098 or Mamu-A*02, followed by a biotinylation sequence peptide (LHHILDAQKMVWNHR), were also expressed in E. coli and were purified in a similar manner to the trimer complex of Mamu-B*098, β2m and C14nef5. The β2m-linked Mamu-B*098 protein was refolded without C14nef5, whereas the β2m-linked Mamu-A*02 protein was refolded in the presence of the YY9 peptide (YTSGPGIRY). These recombinant proteins (3 mg) were biotinylated by being incubated for 12 h at 20 °C with 2 μg of BirA enzyme (Sigma-Aldrich, St Louis, MO) in a biotinylation buffer containing 100 mM Tris-HCl pH 8.0, 5 mM MgCl2, 4.5 mM ATP and 4 mM D-biotin, and were purified by size-exclusion chromatography.
Streptavidin-coated 96-well plates (Thermo Scientific, Hudson, NH) were overlaid with 10 μg of the biotinylated β2m-linked Mamu-B*098 and Mamu-A*02 proteins, and lipopeptide Ags (1 μg) were loaded by an overnight incubation at 37 °C. The wells were then washed extensively and T cells (5 × 10^4 per well) were added. After a 24-h incubation at 37 °C, aliquots of the culture supernatants were collected and the amount of IFN-γ released into the medium was measured by a human/monkey IFN-γ enzyme-linked immunosorbent assay kit (Mabtech, Nacka Strand, Sweden).

Mamu-B*098 = experiment: Biolayer interferometry binding to β2m-linked Mamu-B*098; parameters: species or system rhesus macaque; conditions: Octet RED96; biotinylated β2m-linked Mamu-B*098; lipopeptide 10 μM, 45 min, then 30 min without; 20 mM Tris-HCl pH 7.5, 150 mM NaCl, 2% DMSO; 30 °C; representative of three independent experiments
Description: as §1
(§2) The binding of ligands to MHC class I molecules was analysed using the Octet RED96 system equipped with a streptavidin-conjugated biosensor (Pall ForteBio, Menlo Park, CA) according to the manufacturer's instructions. Biotinylated β2m-linked Mamu-B*098 and Mamu-A*02 proteins were immobilized on the sensor tip surface with a signal magnitude of ∼5.0 nm. […] After reference subtraction, binding signals were analysed using the BIAevaluation 3.1 software. […]

2N5.1 TCR = experiment: SPR binding of soluble 2N5.1 TCR to peptide-loaded Mamu-A*02; parameters: species or system rhesus macaque; conditions: in words; Biacore 3000, 30 °C; soluble 2N5.1 TCR αβ dimer; YY9 peptide-loaded Mamu-A*02 immobilized; pH 7.5
Description: as §1
TCR dimers were generated by the disulfide-linked TCR method. […]
as §2, with “instructions.” for “instructions. Biotinylated β2m-linked Mamu-B*098 and Mamu-A*02 proteins were immobilized on the sensor tip surface with a signal magnitude of ∼5.0 nm.”

Substance | IFN-γ response of 2N5.1 to plate-coated Mamu-B*098 with lipopeptide Ag [1] | physical interaction with immobilized Mamu-B*098 (biolayer interferometry) (Mamu-B*098) | interaction of 2N5.1 TCR with peptide-loaded Mamu-A*02 (SPR) (2N5.1 TCR)
C14-GGAAS | failed to stimulate 2N5.1 even in the presence of Mamu-B*098 | bound to B*098 | –
YTSGPGIRY [YY9, YY9 peptide (…)] | – | – | no interaction was detected
